Measured values published in PubChem BioAssay (NCI).
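Growth conditions: 96-well plates. Treatment: test compound, 48 hours, 5 concentrations. Analysis: linear interpolation between bracketing concentrations; unreached endpoints set to highest concentration. GI50 marks 50% less growth. The concentration for full growth arrest is given as TGI.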

Columns and labels:
Experiment in all cases: growth of human tumour cells (NCI), 48 h
[1] = tested on: SN12C renal
[2] = tested on: CCRF-CEM leukemia
[3] = tested on: NCI-H226 lung
[4] = tested on: UACC-257 melanoma
[5] = tested on: MCF7 breast
[6] = tested on: U251 CNS
[7] = tested on: HT29 colon
[8] = tested on: SF-295 CNS
[9] = tested on: SNB-19 CNS
[10] = tested on: SF-268 CNS
[11] = tested on: NCI-H522 lung
[12] = tested on: ACHN renal
[13] = tested on: HCC-2998 colon
[14] = tested on: MDA-N

Compound	TGI [1] [µM]	TGI [2] [µM]	TGI [3] [µM]	TGI [4] [µM]	TGI [5] [µM]	TGI [6] [µM]	TGI [7] [µM]	TGI [8] [µM]	TGI [9] [µM]	TGI [10] [µM]	TGI [11] [µM]	TGI [12] [µM]	TGI [13] [µM]	TGI [14] [µM]	GI50 [1] [µM]	GI50 [12] [µM]	GI50 [8] [µM]
O=C1CN2Cc3cc(N4CCOCC4)ccc3N=C2N1	> 100	> 100	> 100	> 100	> 100	> 100	> 100	> 100	> 100								
CC(=O)O/N=C/c1ncccc1OC(C)=O	> 100	> 100	> 100	> 100		> 100	> 100	> 100	> 100	> 100	> 100	> 100					
CCCn1c(SCC)c2ccccc2c1-c1nc(F)nc(F)n1	> 100	> 100	> 100			> 100	> 100	> 100	> 100	> 100	> 100	> 100	> 100				
CC1(C2(C)OC(=O)c3ccccc32)OC(=O)c2ccccc21 (centres undefined)	> 100		> 100	> 100	> 100	> 100	> 100	> 100	> 100	> 100	> 100	> 100	> 100	> 100			
COC(=O)C1=C(C(=O)OC)C2(OC(C)=O)c3ccccc3-c3ccccc3C12 (centres undefined)	9.28		31.2	11.8		20.1	10.6	33	> 55	22	2.8	6.48	31				
CC1CC[C@@]2(OC1)OC1C[C@H]3[C@@H]4C/C(=N\N(C)C)[C@@]5(O)CC(O)CC[C@]5(C)[C@H]4CC[C@]3(C)C1[C@@H]2C (some centres undefined)	> 100	> 100	> 100	> 100	> 100	> 100	49.2		> 100	> 100		> 100	> 100	52.6			
COC1=CC(=O)[C@H]2[C@H](C)C(c3ccccc3)[C@@]2(C)C1=O (some centres undefined)		> 100				> 100	> 100	> 100	> 100	> 100	> 100	> 100	> 100				
CCNC1(c2cccc(C)c2)OC(C)(C)c2cccc3cccc1c23 (centres undefined)	35.9	26.4	39	37.9	34.9	31.4	27.8	35.2	33.6	30.9	29.6	32.4		36.8			
Nc1c(-c2nc3ccccc3s2)c2ccc([N+](=O)[O-])cc2c(=O)n1-c1cccc(C(=O)O)c1	84.2	56.8	71.5	61.9		56	> 100		52	> 100	> 100	> 100	> 100	> 100			
N#Cc1c(-c2ccco2)cc(-c2ccc(NCc3nc4ccccc4[nH]3)cc2)nc1N	59.6	> 100				> 100	91.7	52.3	> 100	> 100	55.5	> 100	54.7				
CC1=C2c3c(C)ccc4ccc(C)c(c34)C2(O)C(C)C1=O (centres undefined)	> 100		> 100	> 100	> 100	> 100	> 100		> 100	> 100	> 100	> 100	> 100	> 100			
O=C/C(=C(/Br)I)c1ccccc1	3.64	0.798	26	17.8	2.57	13.7	5.29	13.9	31.4	7.97	3.41	9.63		6.86			
O=C1C(/C=C/c2ccc(Cl)cc2)=NNC2N1N=C1NC(=O)C3(NN12)c1ccccc1-c1ccccc13 (centres undefined)	> 100	> 100	> 100	> 100	> 100	> 100	> 100	> 100	> 100	> 100	> 100	> 100	> 100				
O=C1NC(Cc2c[nH]c3ccccc23)C(=O)N2C(C3CCCCC3)c3[nH]c4ccccc4c3C[C@@H]12 (some centres undefined)	20.8		65.7	29	> 100	26	29.6	43.5	> 100	49.3	28.6	77.4		25.2			
NCCCNc1nc2ccccc2c2c(=O)c3cc(C(F)(F)F)ccc3sc12	3.23							3.21				2.94			1.73	1.59	1.8
COc1cc(C2c3cc4c(cc3OC(Nc3ccc(C(=O)O)cc3)C2C)OCO4)cc(OC)c1OC (centres undefined)	> 100	> 41.8		> 94.1	40	30	> 34.2	> 100	> 93.4	> 39.1	6.02	> 68.6	0.853				
COc1ccc(/C=C2\C[C@H]3[C@@H]4CCC5=C[C@@H](N6CCCC6)CC[C@]5(C)[C@H]4CC[C@]3(C)[C@H]2O)cc1	12.3		10.9	2.98	5.84	12.5	3.15	5.52	16.1	11.6	7.36	11.7	3.27	3.73			
CC1(C)C(=O)C(C)(C)C12SSC1(S2)C(C)(C)C(=O)C1(C)C	> 100		> 100	> 100	> 100	> 100	> 100	> 100	> 100	> 100		> 100	> 100	> 100			
